Test results: patent publication US10758534B2 (Vertex Pharmaceuticals Incorporated, priority 2014, dated 2020)

Target: T1, F508del (Homo sapiens, UniProt P13569, DEL508-508)
T1 construct: expressed in transfected cells
Experiment: Protocol 1: membrane potential optical assay (FLIPR III, voltage sensing dye), identification of potentiator compounds
Type: cell-based
Settings: Table 3, compounds of Table 1
Outline: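 Membrane potential in forskolin-activated, temperature-rescued F508del NIH 3T3 cells is followed with a voltage-sensing dye on FLIPR III. A chloride ion gradient created at the single addition step provides the driving force, after prior compound treatment.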

T1 sequence (P13569 with tags, fused parts or gaps DEL508-508): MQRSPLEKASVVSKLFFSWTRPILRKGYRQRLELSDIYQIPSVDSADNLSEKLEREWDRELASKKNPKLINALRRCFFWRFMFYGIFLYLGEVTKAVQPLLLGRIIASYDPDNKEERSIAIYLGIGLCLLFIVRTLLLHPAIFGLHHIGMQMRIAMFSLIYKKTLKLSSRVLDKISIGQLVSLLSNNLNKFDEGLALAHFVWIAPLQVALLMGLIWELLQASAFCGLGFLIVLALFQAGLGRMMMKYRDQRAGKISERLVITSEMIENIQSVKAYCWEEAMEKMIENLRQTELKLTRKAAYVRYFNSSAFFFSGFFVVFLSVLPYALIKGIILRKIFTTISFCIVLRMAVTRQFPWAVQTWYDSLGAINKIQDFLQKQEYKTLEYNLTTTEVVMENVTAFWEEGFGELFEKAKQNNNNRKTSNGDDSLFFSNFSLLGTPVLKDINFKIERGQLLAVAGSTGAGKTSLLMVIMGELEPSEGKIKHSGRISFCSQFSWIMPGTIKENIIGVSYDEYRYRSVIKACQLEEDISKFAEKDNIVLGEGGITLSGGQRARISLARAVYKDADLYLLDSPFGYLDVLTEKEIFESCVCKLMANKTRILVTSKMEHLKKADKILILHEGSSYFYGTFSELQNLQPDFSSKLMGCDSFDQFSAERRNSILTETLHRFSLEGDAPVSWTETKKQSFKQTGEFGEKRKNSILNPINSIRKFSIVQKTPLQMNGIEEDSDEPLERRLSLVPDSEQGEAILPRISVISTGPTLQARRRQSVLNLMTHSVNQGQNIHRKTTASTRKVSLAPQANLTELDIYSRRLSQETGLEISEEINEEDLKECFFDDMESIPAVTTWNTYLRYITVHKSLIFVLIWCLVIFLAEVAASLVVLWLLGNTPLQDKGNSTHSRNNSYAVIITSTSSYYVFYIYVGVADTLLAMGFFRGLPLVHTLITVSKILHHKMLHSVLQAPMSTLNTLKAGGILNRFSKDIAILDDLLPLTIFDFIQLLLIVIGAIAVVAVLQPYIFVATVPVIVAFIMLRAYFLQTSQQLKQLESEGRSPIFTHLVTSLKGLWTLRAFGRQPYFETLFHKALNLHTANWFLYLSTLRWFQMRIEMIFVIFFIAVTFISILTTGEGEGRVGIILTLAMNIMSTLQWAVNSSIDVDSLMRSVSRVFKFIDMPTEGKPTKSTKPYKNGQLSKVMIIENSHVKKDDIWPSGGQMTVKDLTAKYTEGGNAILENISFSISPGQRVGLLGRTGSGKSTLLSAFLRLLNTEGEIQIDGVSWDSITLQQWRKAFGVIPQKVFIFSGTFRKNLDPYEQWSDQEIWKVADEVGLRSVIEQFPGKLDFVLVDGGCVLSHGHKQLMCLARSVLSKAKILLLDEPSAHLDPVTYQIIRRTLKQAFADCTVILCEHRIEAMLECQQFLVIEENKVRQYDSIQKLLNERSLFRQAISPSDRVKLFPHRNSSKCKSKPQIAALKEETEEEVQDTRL

| SMILES | EC30 |
| --- | --- |
| CC1CCCN(c2nc(C(C)(C)C)ccc2C(=O)NS(=O)(=O)c2cccc(N)n2)C1 (stereo not drawn) [Compound 1008, N-[(6-amino-2-pyridyl)sulfonyl]-6-tert-butyl-2-(3-methyl-1-piperidyl)pyridine-3-carboxamide] | +++ (“+++” means <3 uM) |
| CC(C)COc1cc(F)cc(-c2ccc(C(=O)NS(=O)(=O)c3cccc(N)n3)c(N(C)CC3(C)CC3)n2)c1 [Compound 1009, N-[(6-amino-2-pyridyl)sulfonyl]-6-(3-fluoro-5-isobutoxy-phenyl)-2-[methyl-[(1-methylcyclopropyl)methyl]amino]pyridine-3-carboxamide] | +++ (“+++” means <3 uM) |
| CC(C)COc1cc(F)cc(-c2ccc(C(=O)NS(=O)(=O)c3cccc(N)n3)c(N(C)CC3CC3)n2)c1 [Compound 1010, N-[(6-amino-2-pyridyl)sulfonyl]-2-[cyclopropylmethyl(methyl)amino]-6-(3-fluoro-5-isobutoxy-phenyl)pyridine-3-carboxamide] | +++ (“+++” means <3 uM) |
| CC(C)COc1cccc(-c2ccc(C(=O)NS(=O)(=O)c3cccc(N)n3)c(N3CCCC3(C)C)n2)n1 [Compound 1011, N-[(6-amino-2-pyridyl)sulfonyl]-2-(2,2-dimethylpyrrolidin-1-yl)-6-(6-isobutoxy-2-pyridyl)pyridine-3-carboxamide] | +++ (“+++” means <3 uM) |
| CC(C)Oc1ccc(-c2ccc(C(=O)NS(=O)(=O)c3cccc(N)n3)c(N3CCC(OCc4ccccc4)CC3)n2)cn1 [Compound 1012, N-[(6-amino-2-pyridyl)sulfonyl]-2-(4-benzyloxy-1-piperidyl)-6-(6-isopropoxy-3-pyridyl)pyridine-3-carboxamide] | +++ (“+++” means <3 uM) |
| CC(C)COc1cc(F)cc(-c2ccc(C(=O)NS(=O)(=O)c3cccc(N)n3)c(N3CC(C)CC(C)C3)n2)c1 (stereo not drawn) [Compound 1013, N-[(6-amino-2-pyridyl)sulfonyl]-2-(3,5-dimethyl-1-piperidyl)-6-(3-fluoro-5-isobutoxy-phenyl)pyridine-3-carboxamide] | +++ (“+++” means <3 uM) |
| CC(C)COc1cc(F)cc(-c2ccc(C(=O)NS(=O)(=O)c3cccc(N)c3)c(N3CCC(C)(C)CC3)n2)c1 [Compound 1014, N-(3-aminophenyl)sulfonyl-2-(4,4-dimethyl-1-piperidyl)-6-(3-fluoro-5-isobutoxy-phenyl)pyridine-3-carboxamide] | +++ (“+++” means <3 uM) |
| Cc1ccc(-c2ccc(C(=O)NS(=O)(=O)c3cccc(N)n3)c(Oc3ccc(C)cc3C)n2)cc1 [Compound 1015, N-[(6-amino-2-pyridyl)sulfonyl]-2-(2,4-dimethylphenoxy)-6-(p-tolyl)pyridine-3-carboxamide] | +++ (“+++” means <3 uM) |
| Cc1cc(C)c(Oc2nc(-c3cccc(C(C)C)c3)ccc2C(=O)NS(=O)(=O)c2cccc(N)n2)c(C)c1 [Compound 1016, N-[(6-amino-2-pyridyl)sulfonyl]-6-(3-isopropylphenyl)-2-(2,4,6-trimethylphenoxy)pyridine-3-carboxamide] | +++ (“+++” means <3 uM) |
| CC(C)COc1ccc(-c2ccc(C(=O)NS(=O)(=O)c3ccc[nH]c3=O)c(N3CCC(C)CC3)n2)cc1 [Compound 1017, 6-(4-isobutoxyphenyl)-2-(4-methyl-1-piperidyl)-N-[(2-oxo-1H-pyridin-3-yl)sulfonyl]pyridine-3-carboxamide] | ++ (“++” means between 3 uM and 10 uM) |
| CC(C)COc1cc(-c2ccc(C(=O)NS(=O)(=O)c3cccc(N)n3)c(N3CC(C)CC3(C)C)n2)ccc1Cl (stereo not drawn) [Compound 1021, N-[(6-amino-2-pyridyl)sulfonyl]-6-(4-chloro-3-isobutoxy-phenyl)-2-(2,2,4-trimethylpyrrolidin-1-yl)pyridine-3-carboxamide] | +++ (“+++” means <3 uM) |
| COCC1CCCN(c2nc(-c3cc(F)cc(OCC(C)C)c3)ccc2C(=O)NS(=O)(=O)c2ccn[nH]2)C1 (stereo not drawn) [Compound 1028, 6-(3-fluoro-5-isobutoxy-phenyl)-2-[3-(methoxymethyl)-1-piperidyl]-N-(1H-pyrazol-5-ylsulfonyl)pyridine-3-carboxamide] | ++ (“++” means between 3 uM and 10 uM) |
| CCC1CCN(c2nc(-c3cc(F)cc(OCC(C)C)c3)ccc2C(=O)NS(=O)(=O)c2ccn[nH]2)CC1 [Compound 1030, 2-(4-ethyl-1-piperidyl)-6-(3-fluoro-5-isobutoxy-phenyl)-N-(1H-pyrazol-5-ylsulfonyl)pyridine-3-carboxamide] | +++ (“+++” means <3 uM) |

The remaining lines, values ahead:

| EC30 | SMILES |
| --- | --- |
| ++ (“++” means between 3 uM and 10 uM) | Cc1cc(C)c(Oc2nc(C)ccc2C(=O)NS(=O)(=O)c2cccc(N3CCN(C)CC3)n2)c(C)c1 [Compound 1018, 6-methyl-N-[[6-(4-methylpiperazin-1-yl)-2-pyridyl]sulfonyl]-2-(2,4,6-trimethylphenoxy)pyridine-3-carboxamide] |
| +++ (“+++” means <3 uM) | CCOc1ccc(-c2ccc(C(=O)NS(=O)(=O)c3nccnc3N)c(Oc3c(C)cc(C)cc3C)n2)cc1 [Compound 1019, N-(3-aminopyrazin-2-yl)sulfonyl-6-(4-ethoxyphenyl)-2-(2,4,6-trimethylphenoxy)pyridine-3-carboxamide] |
| +++ (“+++” means <3 uM) | CC1CN(c2nc(-c3ccc(OC(C)C)cc3)ccc2C(=O)NS(=O)(=O)c2cccc(N)n2)C(C)(C)C1 (stereo not drawn) [Compound 1020, N-[(6-amino-2-pyridyl)sulfonyl]-6-(4-isopropoxyphenyl)-2-(2,2,4-trimethylpyrrolidin-1-yl)pyridine-3-carboxamide] |
| ++ (“++” means between 3 uM and 10 uM) | CCCOc1ccc(-c2ccc(C(=O)NS(=O)(=O)c3ccc[nH]c3=O)c(Oc3c(C)cc(C)cc3C)n2)cc1F [Compound 1022, 6-(3-fluoro-4-propoxy-phenyl)-N-[(2-oxo-1H-pyridin-3-yl)sulfonyl]-2-(2,4,6-trimethylphenoxy)pyridine-3-carboxamide] |
| +++ (“+++” means <3 uM) | CCC1CCCN(c2nc(-c3ccc(OC(C)C)nc3)ccc2C(=O)NS(=O)(=O)c2cccc(N)n2)C1 (stereo not drawn) [Compound 1023, N-[(6-amino-2-pyridyl)sulfonyl]-2-(3-ethyl-1-piperidyl)-6-(6-isopropoxy-3-pyridyl)pyridine-3-carboxamide] |
| ++ (“++” means between 3 uM and 10 uM) | COc1ccc(-c2cc(C(=O)NS(=O)(=O)c3cccc(N)c3)n(C(C)c3ccccc3)n2)cc1 (stereo not drawn) [Compound 1024, N-(3-aminophenyl)sulfonyl-5-(4-methoxyphenyl)-2-(1-phenylethyl)pyrazole-3-carboxamide] |
| +++ (“+++” means <3 uM) | CC(C)Oc1ccc(-c2ccc(C(=O)NS(=O)(=O)c3cccc(N)n3)c(N(C)C3CCCC3)n2)cn1 [Compound 1025, N-[(6-amino-2-pyridyl)sulfonyl]-2-[cyclopentyl(methyl)amino]-6-(6-isopropoxy-3-pyridyl)pyridine-3-carboxamide] |
| ++ (“++” means between 3 uM and 10 uM) | CC(C)Oc1ccc(-c2ccc(C(=O)NS(=O)(=O)c3cccc(N)n3)c(NCc3ccccc3)n2)cn1 [Compound 1026, N-[(6-amino-2-pyridyl)sulfonyl]-2-(benzylamino)-6-(6-isopropoxy-3-pyridyl)pyridine-3-carboxamide] |
| ++ (“++” means between 3 uM and 10 uM) | Cc1cc(C)c(Oc2nc(-c3ccccc3)ccc2C(=O)NS(=O)(=O)c2cccc(NCCN)n2)c(C)c1 [Compound 1027, N-[[6-(2-aminoethylamino)-2-pyridyl]sulfonyl]-6-phenyl-2-(2,4,6-trimethylphenoxy)pyridine-3-carboxamide] |
| ++ (“++” means between 3 uM and 10 uM) | C[C@@H]1CC[C@H](C)N1c1nc(-c2ccc(F)cc2)ccc1C(=O)NS(=O)(=O)c1cccc(N)n1 [Compound 1029, N-[(6-amino-2-pyridyl)sulfonyl]-2-[(2S,5R)-2,5-dimethylpyrrolidin-1-yl]-6-(4-fluorophenyl)pyridine-3-carboxamide] |
| +++ (“+++” means <3 uM) | CC(C)c1ccccc1Oc1nc(C(C)(C)C)ccc1C(=O)NS(=O)(=O)c1cccc(N)n1 [Compound 1031, N-[(6-amino-2-pyridyl)sulfonyl]-6-tert-butyl-2-(2-isopropylphenoxy)pyridine-3-carboxamide] |
| +++ (“+++” means <3 uM) | CNc1cccc(S(=O)(=O)NC(=O)c2ccc(-c3ccccc3)nc2Oc2c(C)cc(C)cc2C)n1 [Compound 1032, N-[[6-(methylamino)-2-pyridyl]sulfonyl]-6-phenyl-2-(2,4,6-trimethylphenoxy)pyridine-3-carboxamide] |
| +++ (“+++” means <3 uM) | COc1ccc(-c2ccc(C(=O)NS(=O)(=O)c3cc[nH]n3)c(Oc3c(C)cc(C)cc3C)n2)cc1 [Compound 1033, 6-(4-methoxyphenyl)-N-(1H-pyrazol-3-ylsulfonyl)-2-(2,4,6-trimethylphenoxy)pyridine-3-carboxamide] |
| +++ (“+++” means <3 uM) | COc1cccc(-c2ccc(C(=O)NS(=O)(=O)c3cccc(N)n3)c(Oc3c(C)cc(C)cc3C)n2)n1 [Compound 1034, N-[(6-amino-2-pyridyl)sulfonyl]-6-(6-methoxy-2-pyridyl)-2-(2,4,6-trimethylphenoxy)pyridine-3-carboxamide] |
| +++ (“+++” means <3 uM) | Cc1ccc(-c2ccc(C(=O)NS(=O)(=O)c3cccc(N)n3)c(Oc3c(C)cc(C)cc3C)n2)cc1 [Compound 1035, N-[(6-amino-2-pyridyl)sulfonyl]-6-(p-tolyl)-2-(2,4,6-trimethylphenoxy)pyridine-3-carboxamide] |
| + (“+” means greater than 10 uM) | Cc1ccccc1-c1nc(C(C)(C)C)ccc1C(=O)NS(=O)(=O)c1cccc(N)c1 [Compound 1036, N-(3-aminophenyl)sulfonyl-6-tert-butyl-2-(o-tolyl)pyridine-3-carboxamide] |
| ++ (“++” means between 3 uM and 10 uM) | CC1CCN(c2nc(C(C)(C)C)ccc2C(=O)NS(=O)(=O)c2ccc(N)cc2)CC1 [Compound 1037, N-(4-aminophenyl)sulfonyl-6-tert-butyl-2-(4-methyl-1-piperidyl)pyridine-3-carboxamide] |
